Legend:
[1] = test system: recombinant NL4-3 virus (nef section replaced with Renilla luciferase gene) in MT-2 cells; experiment: HIV cell culture assay (antiviral activity, luciferase readout); type: cell-based; conditions: Renilla, NL43, MT-2 cells infected for 4-5 days with recombinant NL4-3 Renilla luciferase virus
Method in brief: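 The reporter virus was produced by transfecting 293T cells with the NL4-3 nef/Renilla luciferase proviral clone. MT-2 cells were infected for 4–5 days with serial compound dilutions present. Luciferase was read with a live-cell substrate, and EC50 came from the exponential median-effect equation.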

[2] = Compound cytotoxicity, XTT-based colorimetric assay; type: cell-based; conditions: human; uninfected MT2 cells, day 4, XTT; read-out: CC50
Method in brief: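 Follows the antiviral assay procedure, but with uninfected MT2 cells. On day 4, cell viability is measured by XTT-based colorimetry, giving CC50 values.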

| SMILES | EC50 [1] [nM] | CC50 at 4 days [2] [nM] |
| --- | --- | --- |
| CS(=O)(=O)Nc1nn(CCN2CCC(F)CC2)c2c(-n3c([C@H](Cc4cc(F)cc(F)c4)NC(=O)Cn4nc(C(F)F)c5c4C(F)(F)[C@@H]4C[C@H]54)nc4nc(C5CCC(F)(F)CC5)cc(C(F)F)c4c3=O)ccc(Cl)c12 (atropisomer, axis not shown; (P)) [Example 370, N-[(1S)-1-[(3P)-3-{4-chloro-1-[2-(4-fluoropiperidin-1-yl)ethyl]-3-methanesulfonamido-1H-indazol-7-yl}-7-(4,4-difluorocyclohexyl)-5-(difluoromethyl)-4-oxo-3H,4H-pyrido[2,3-d]pyrimidin-2-yl]-2-(3,5-difluorophenyl)ethyl]-2-[(2S,4R)-9-(difluoromethyl)-5,5-difluoro-7,8-diazatricyclo[4.3.0.0^2,^4]nona-1(6),8-dien-7-yl]acetamide] | 0.009 | > 20 |
| Cc1cc(C2CCC(F)(F)CC2)nc2nc([C@H](Cc3cc(F)cc(F)c3)NC(=O)Cn3nc(C4CC4)c4c3C[C@@H]3C[C@H]43)n(-c3ccc(Cl)c4c(NS(C)(=O)=O)nn(CCN5CC(C)(C)OC(C)(C)C5)c34)c(=O)c12 (atropisomer, axis not shown; (P)) [Example 13, N-[(1S)-1-[(3P)-3-{4-chloro-3-methanesulfonamido-1-[2-(2,2,6,6-tetramethylmorpholin-4-yl)ethyl]-1H-indazol-7-yl}-7-(4,4-difluorocyclohexyl)-5-methyl-4-oxo-3H,4H-pyrido[2,3-d]pyrimidin-2-yl]-2-(3,5-difluorophenyl)ethyl]-2-[(2S,4S)-9-cyclopropyl-7,8-diazatricyclo[4.3.0.0^2,4]nona-1(6),8-dien-7-yl]acetamide] | 0.011 | > 20000 |
| CS(=O)(=O)Nc1nn(CCN2CC[C@@](F)(C(F)(F)F)C2)c2c(-n3c([C@H](Cc4cc(F)cc(F)c4)NC(=O)Cn4nc(C(F)F)c5c4C(F)(F)[C@@H]4C[C@H]54)nc4nc(C5CCC(F)(F)CC5)ccc4c3=O)ccc(Cl)c12 (atropisomer, axis not shown; (P)) [Example 42, N-[(1S)-1-[(3P)-3-(4-chloro-1-{2-[(3S)-3-fluoro-3-(trifluoromethyl)pyrrolidin-1-yl]ethyl}-3-methanesulfonamido-1H-indazol-7-yl)-7-(4,4-difluorocyclohexyl)-4-oxo-3H,4H-pyrido[2,3-d]pyrimidin-2-yl]-2-(3,5-difluorophenyl)ethyl]-2-[(2S,4R)-9-(difluoromethyl)-5,5-difluoro-7,8-diazatricyclo[4.3.0.0^2,^4]nona-1(6),8-dien-7-yl]acetamide] | 0.021 | > 50 |
| CS(=O)(=O)Nc1nn(CCN2C[C@H](F)C[C@H](F)C2)c2c(-n3c([C@H](Cc4cc(F)cc(F)c4)NC(=O)Cn4nc(C5CC5)c5c4C[C@@H]4C[C@H]54)nc4nc(C5CCC(F)(F)CC5)cc(C5CC5)c4c3=O)ccc(Cl)c12 (atropisomer, axis not shown; (P)) [Example 327, N-[(1S)-1-[(3P)-3-(4-chloro-1-{2-[(3R,5S)-3,5-difluoropiperidin-1-yl]ethyl}-3-methanesulfonamido-1H-indazol-7-yl)-5-cyclopropyl-7-(4,4-difluorocyclohexyl)-4-oxo-3H,4H-pyrido[2,3-d]pyrimidin-2-yl]-2-(3,5-difluorophenyl)ethyl]-2-[(2S,4S)-9-cyclopropyl-7,8-diazatricyclo[4.3.0.0^2,^4]nona-1(6),8-dien-7-yl]acetamide] | 0.008 | > 50 |
| CS(=O)(=O)Nc1nn(CCN(CCC(F)(F)F)CCC(F)(F)F)c2c(-n3c([C@H](Cc4cc(F)cc(F)c4)NC(=O)Cn4nc(C(F)F)c5c4C(F)(F)[C@@H]4C[C@H]54)nc4nc(C5CCC(F)(F)CC5)ccc4c3=O)ccc(Cl)c12 (atropisomer, axis not shown; (P)) [Example 671, N-[(1S)-1-[(3P)-3-(1-{2-[bis(3,3,3-trifluoropropyl)amino]ethyl}-4-chloro-3-methanesulfonamido-1H-indazol-7-yl)-7-(4,4-difluorocyclohexyl)-4-oxo-3H,4H-pyrido[2,3-d]pyrimidin-2-yl]-2-(3,5-difluorophenyl)ethyl]-2-[(2S,4R)-9-(difluoromethyl)-5,5-difluoro-7,8-diazatricyclo[4.3.0.0^2,^4]nona-1(6),8-dien-7-yl]acetamide] | 0.027 | > 20 |
| Cc1cc(C2(F)CCC(F)(F)CC2)nc2nc([C@H](Cc3cc(F)cc(F)c3)NC(=O)Cn3nc(C(F)F)c4c3C(F)(F)[C@@H]3C[C@H]43)n(-c3ccc(Cl)c4c(NS(C)(=O)=O)nn(CCN5C[C@H]6CC[C@@H](C5)O6)c34)c(=O)c12 (atropisomer, axis not shown; (P)) [Example 589, N-[(1S)-1-[(3P)-3-(4-chloro-3-methanesulfonamido-1-{2-[(1R,5S)-8-oxa-3-azabicyclo[3.2.1]octan-3-yl]ethyl}-1H-indazol-7-yl)-5-methyl-4-oxo-7-(1,4,4-trifluorocyclohexyl)-3H, 4H-pyrido[2,3-d]pyrimidin-2-yl]-2-(3,5-difluorophenyl)ethyl]-2-[(2S,4R)-9-(difluoromethyl)-5,5-difluoro-7,8-diazatricyclo[4.3.0.0^2,^4]nona-1(6),8-dien-7-yl]acetamide] | 0.005 | > 20 |
| Cc1cc(C2CCC(F)(F)CC2)nc2nc([C@H](Cc3cc(F)cc(F)c3)NC(=O)Cn3nc(C4CC4)c4c3C[C@@H]3C[C@H]43)n(-c3ccc(Cl)c4c(NS(C)(=O)=O)nn([C@H](C)CN5CC(C)(C)OC(C)(C)C5)c34)c(=O)c12 (relative stereo) [Example 734, N-[(1S)-1-[(3P)-3-{4-chloro-3-methanesulfonamido-1-[(2R)-1-(2,2,6,6-tetramethylmorpholin-4-yl)propan-2-yl]-1H-indazol-7-yl}-7-(4,4-difluorocyclohexyl)-5-methyl-4-oxo-3H,4H-pyrido[2,3-d]pyrimidin-2-yl]-2-(3,5-difluorophenyl)ethyl]-2-[(2R*,4R*)-9-cyclopropyl-7,8-diazatricyclo[4.3.0.0^2,^4]nona-1(6),8-dien-7-yl]acetamide] | 0.038 | > 20 |
| COCCCn1nc(NS(C)(=O)=O)c2c(Cl)ccc(-n3c([C@H](Cc4cc(F)cc(F)c4)NC(=O)Cn4nc(C(F)F)c5c4C(F)(F)[C@@H]4C[C@H]54)nc4nc(C5CCC(F)(F)CC5)cc(NCCN5CCOCC5)c4c3=O)c21 (atropisomer, axis not shown; (P)) [Example 430, N-[(1S)-1-[(3P)-3-[4-chloro-3-methanesulfonamido-1-(3-methoxypropyl)-1H-indazol-7-yl]-7-(4,4-difluorocyclohexyl)-5-{[2-(morpholin-4-yl)ethyl]amino}-4-oxo-3H,4H-pyrido[2,3-d]pyrimidin-2-yl]-2-(3,5-difluorophenyl)ethyl]-2-[(2S,4R)-9-(difluoromethyl)-5,5-difluoro-7,8-diazatricyclo[4.3.0.0^2,^4]nona-1(6),8-dien-7-yl]acetamide] | 0.011 | > 20 |
| Cc1cc(C2(F)CCC(F)(F)CC2)nc2nc([C@H](Cc3cc(F)cc(F)c3)NC(=O)Cn3nc(C(F)F)c4c3C(F)(F)[C@@H]3C[C@H]43)n(-c3ccc(Cl)c4c(NS(C)(=O)=O)nn(CCN5C[C@H](F)C[C@H](F)C5)c34)c(=O)c12 (atropisomer, axis not shown; (P)) [Example 11, N-[(1S)-1-[(3P)-3-(4-chloro-1-{2-[(3R,5S)-3,5-difluoropiperidin-1-yl]ethyl}-3-methanesulfonamido-1H-indazol-7-yl)-5-methyl-4-oxo-7-(1,4,4-trifluorocyclohexyl)-3H,4H-pyrido[2,3-d]pyrimidin-2-yl]-2-(3,5-difluorophenyl)ethyl]-2-[(2S,4R)-9-(difluoromethyl)-5,5-difluoro-7,8-diazatricyclo[4.3.0.0^2,4]nona-1(6),8-dien-7-yl]acetamide] | 0.009 | > 20000 |
| CS(=O)(=O)Nc1nn(CCN2CCN(S(C)(=O)=O)CC2)c2c(-n3c([C@H](Cc4cc(F)cc(F)c4)NC(=O)Cn4nc(C5CC5)c5c4C[C@@H]4C[C@H]54)nc4nc(C5CCC(F)(F)CC5)ccc4c3=O)ccc(Cl)c12 (atropisomer, axis not shown; (P)) [Example 382, N-[(1S)-1-[(3P)-3-{4-chloro-3-methanesulfonamido-1-[2-(4-methanesulfonylpiperazin-1-yl)ethyl]-1H-indazol-7-yl}-7-(4,4-difluorocyclohexyl)-4-oxo-3H,4H-pyrido[2,3-d]pyrimidin-2-yl]-2-(3,5-difluorophenyl)ethyl]-2-[(2S,4S)-9-cyclopropyl-7,8-diazatricyclo[4.3.0.0^2,^4]nona-1(6),8-dien-7-yl]acetamide] | 0.037 | > 20 |
| Cc1cc(C2CCC(F)(F)CC2)nc2nc([C@H](Cc3cc(F)cc(F)c3)NC(=O)Cn3nc(C4CC4)c4c3C[C@@H]3C[C@H]43)n(-c3ccc(Cl)c4c(NS(C)(=O)=O)nn(CCN5CCOCC5)c34)c(=O)c12 (atropisomer, axis not shown; (P)) [Example 114, N-[(1S)-1-[(3P)-3-{4-chloro-3-methanesulfonamido-1-[2-(morpholin-4-yl)ethyl]-1H-indazol-7-yl}-7-(4,4-difluorocyclohexyl)-5-methyl-4-oxo-3H,4H-pyrido[2,3-d]pyrimidin-2-yl]-2-(3,5-difluorophenyl)ethyl]-2-[(2S,4S)-9-cyclopropyl-7,8-diazatricyclo[4.3.0.0^2,^4]nona-1(6),8-dien-7-yl]acetamide] | 0.013 | > 50 |

Reference: US12594276B2, “Inhibitors of human immunodeficiency virus replication” (ViiV Healthcare UK (No.5) Limited, priority 2024, dated 2026)
